Data: ChEMBL document CHEMBL4196007, “Design, synthesis and biological evaluation of novel 4-aminoquinazolines as dual target inhibitors of EGFR-PI3Kα” (Eur J Med Chem, 2018)
Active and inactive are the calls of the source. The calls are words filed in the database; no cut-off is given here.

Experiments:
[1] = system: HCT-116; experiment: Cytotoxicity against human HCT116 cells after 72 hrs by SRB assay; format: functional, cell-based; settings: HCT-116, 72 h
[2] = system: BT-549; experiment: Induction of apoptosis in human BT549 cells assessed as early apoptotic cells at 5 uM by Annexin V-FITC/propidium iodide staining-based flow cytometric analysis relative to control; format: functional
[3] = system: BT-549; experiment: Cell cycle arrest in human BT549 cells assessed as accumulation of cells at G1 phase at 5 uM after 24 hrs by propidium iodide staining-based flow cytometric analysis (reference value: 55.93%); format: functional
[4] = system: BT-549; experiment: Induction of apoptosis in human BT549 cells assessed as late apoptotic cells at 5 uM by Annexin V-FITC/propidium iodide staining-based flow cytometric analysis relative to control; format: functional
[5] = system: BT-549; experiment: Induction of apoptosis in human BT549 cells assessed as late apoptotic cells at 2.5 uM by Annexin V-FITC/propidium iodide staining-based flow cytometric analysis relative to control; format: functional
[6] = system: BT-549; experiment: Inhibition of colony formation in human BT549 cells after 2 weeks by crystal violet staining-based assay; format: functional, cell-based
[7] = system: BT-549; experiment: Induction of apoptosis in human BT549 cells assessed as nuclear fragmentation at 1 to 5 uM after 24 hrs by DAPI staining-based fluorescence microscopic analysis; format: functional, cell-based
[8] = system: A549; experiment: Cytotoxicity against human A549 cells after 72 hrs by SRB assay; format: functional, cell-based; settings: A549, 72 h
[9] = system: SK-HEP1; experiment: Cytotoxicity against human SKHEP1 cells after 72 hrs by SRB assay; format: functional, cell-based; settings: SK-HEP1, 72 h
[10] = system: BT-549; experiment: Induction of apoptosis in human BT549 cells assessed as late apoptotic cells at 1 uM by Annexin V-FITC/propidium iodide staining-based flow cytometric analysis relative to control; format: functional
[11] = system: BT-549; experiment: Cytotoxicity against human BT549 cells after 72 hrs by SRB assay; format: functional, cell-based; settings: BT-549, 72 h
[12] = system: BT-549; experiment: Induction of apoptosis in human BT549 cells assessed as chromatin condensation at 1 to 5 uM after 24 hrs by DAPI staining-based fluorescence microscopic analysis; format: functional, cell-based
[13] = system: BT-549; experiment: Induction of apoptosis in human BT549 cells assessed as early apoptotic cells at 2.5 uM by Annexin V-FITC/propidium iodide staining-based flow cytometric analysis relative to control; format: functional
[14] = system: BT-549; experiment: Cell cycle arrest in human BT549 cells assessed as accumulation of cells at G2 phase at 2.5 uM after 24 hrs by propidium iodide staining-based flow cytometric analysis (reference value: 18.96%); format: functional
[15] = system: BT-549; experiment: Induction of apoptosis in human BT549 cells assessed as early apoptotic cells at 1 uM by Annexin V-FITC/propidium iodide staining-based flow cytometric analysis relative to control; format: functional
[16] = target: Phosphatidylinositol 4,5-bisphosphate 3-kinase catalytic subunit beta isoform (Homo sapiens, UniProt P42338); experiment: Inhibition of PI3K p110beta (unknown origin) using PIP2 as substrate by ELISA
[17] = system: BT-549; experiment: Cell cycle arrest in human BT549 cells assessed as accumulation of cells at S phase at 1 uM after 24 hrs by propidium iodide staining-based flow cytometric analysis (reference value: 25.10%); format: functional
[18] = system: BT-549; experiment: Inhibition of colony formation in human BT549 cells assessed as colony formation rate at 5 uM after 2 weeks by crystal violet staining-based assay relative to control; format: functional; parameters: scale not given: the % may be the effect or the level left
[19] = system: SNU-638; experiment: Cytotoxicity against human SNU638 cells after 72 hrs by SRB assay; format: functional, cell-based; settings: SNU-638, 72 h
[20] = system: BT-549; experiment: Cell cycle arrest in human BT549 cells assessed as accumulation of cells at G1 phase at 2.5 uM after 24 hrs by propidium iodide staining-based flow cytometric analysis (reference value: 55.93%); format: functional
[21] = system: BT-549; experiment: Cell cycle arrest in human BT549 cells assessed as accumulation of cells at S phase at 5 uM after 24 hrs by propidium iodide staining-based flow cytometric analysis (reference value: 25.10%); format: functional
[22] = system: MCF7; experiment: Cytotoxicity against human MCF7 cells after 72 hrs by SRB assay; format: functional, cell-based; settings: MCF7, 72 h
[23] = system: BT-549; experiment: Cell cycle arrest in human BT549 cells assessed as accumulation of cells at G1 phase after 24 hrs by propidium iodide staining-based flow cytometric analysis; format: functional
[24] = system: BT-549; experiment: Cell cycle arrest in human BT549 cells assessed as accumulation of cells at G1 phase at 1 uM after 24 hrs by propidium iodide staining-based flow cytometric analysis (reference value: 55.93%); format: functional
[25] = target: Phosphatidylinositol 4,5-bisphosphate 3-kinase catalytic subunit gamma isoform (Homo sapiens, UniProt P48736); experiment: Inhibition of PI3K p110gamma (unknown origin) using PIP2 as substrate by ELISA
[26] = system: BT-549; experiment: Cell cycle arrest in human BT549 cells assessed as accumulation of cells at G2 phase at 5 uM after 24 hrs by propidium iodide staining-based flow cytometric analysis (reference value: 18.96%); format: functional
[27] = target: T1, Phosphatidylinositol 4,5-bisphosphate 3-kinase catalytic subunit delta isoform (Homo sapiens, UniProt O00329); experiment: Inhibition of PI3K p110delta (unknown origin) using PIP2 as substrate by ELISA
T1 sequence (O00329 whole entry): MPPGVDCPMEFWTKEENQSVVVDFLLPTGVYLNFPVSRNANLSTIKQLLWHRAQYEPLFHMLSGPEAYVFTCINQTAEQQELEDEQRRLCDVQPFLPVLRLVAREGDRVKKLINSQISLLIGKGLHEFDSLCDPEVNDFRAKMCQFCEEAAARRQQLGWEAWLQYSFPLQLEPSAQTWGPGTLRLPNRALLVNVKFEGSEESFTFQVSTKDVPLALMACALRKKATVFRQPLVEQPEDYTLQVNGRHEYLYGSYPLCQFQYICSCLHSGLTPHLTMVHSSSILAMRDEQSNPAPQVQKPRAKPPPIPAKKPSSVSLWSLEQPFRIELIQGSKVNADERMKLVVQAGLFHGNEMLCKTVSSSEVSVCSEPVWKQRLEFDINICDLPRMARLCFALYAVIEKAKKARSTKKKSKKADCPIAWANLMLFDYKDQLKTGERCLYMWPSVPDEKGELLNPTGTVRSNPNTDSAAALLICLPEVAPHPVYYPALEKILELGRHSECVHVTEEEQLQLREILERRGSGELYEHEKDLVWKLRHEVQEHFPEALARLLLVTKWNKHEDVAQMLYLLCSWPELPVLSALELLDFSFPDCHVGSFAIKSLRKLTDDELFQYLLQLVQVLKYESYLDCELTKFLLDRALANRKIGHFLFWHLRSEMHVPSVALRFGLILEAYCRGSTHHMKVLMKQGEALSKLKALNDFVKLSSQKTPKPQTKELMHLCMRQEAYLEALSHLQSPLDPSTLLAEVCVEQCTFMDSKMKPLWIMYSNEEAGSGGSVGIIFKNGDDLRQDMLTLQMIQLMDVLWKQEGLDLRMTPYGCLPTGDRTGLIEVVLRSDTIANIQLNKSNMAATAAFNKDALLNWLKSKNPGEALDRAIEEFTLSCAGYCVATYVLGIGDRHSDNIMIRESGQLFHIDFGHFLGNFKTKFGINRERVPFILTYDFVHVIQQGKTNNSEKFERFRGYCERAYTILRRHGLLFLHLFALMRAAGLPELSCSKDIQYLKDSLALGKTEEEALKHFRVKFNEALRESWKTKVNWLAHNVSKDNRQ

[28] = system: BT-549; experiment: Cell cycle arrest in human BT549 cells assessed as accumulation of cells at G2 phase at 1 uM after 24 hrs by propidium iodide staining-based flow cytometric analysis (reference value: 18.96%); format: functional
[29] = system: BT-549; experiment: Cell cycle arrest in human BT549 cells assessed as accumulation of cells at S phase at 2.5 uM after 24 hrs by propidium iodide staining-based flow cytometric analysis (reference value: 25.10%); format: functional
[30] = system: BT-549; experiment: Inhibition of colony formation in human BT549 cells assessed as colony formation rate at 2.5 uM after 2 weeks by crystal violet staining-based assay relative to control; format: functional; parameters: scale not given: the % may be the effect or the level left
[31] = target: Phosphatidylinositol 4,5-bisphosphate 3-kinase catalytic subunit alpha isoform (Homo sapiens, UniProt P42336); experiment: Inhibition of PI3K p110alpha (unknown origin) using PIP2 as substrate by ELISA
[32] = species: Homo sapiens; experiment: Inhibition of PI3K in human BT549 cells assessed as decrease in Akt phosphorylation at Ser473 by Western blot analysis; format: cell-based

Phosphatidylinositol 4,5-bisphosphate 3-kinase catalytic subunit beta isoform, sequence (P42338 whole entry, canonical isoform): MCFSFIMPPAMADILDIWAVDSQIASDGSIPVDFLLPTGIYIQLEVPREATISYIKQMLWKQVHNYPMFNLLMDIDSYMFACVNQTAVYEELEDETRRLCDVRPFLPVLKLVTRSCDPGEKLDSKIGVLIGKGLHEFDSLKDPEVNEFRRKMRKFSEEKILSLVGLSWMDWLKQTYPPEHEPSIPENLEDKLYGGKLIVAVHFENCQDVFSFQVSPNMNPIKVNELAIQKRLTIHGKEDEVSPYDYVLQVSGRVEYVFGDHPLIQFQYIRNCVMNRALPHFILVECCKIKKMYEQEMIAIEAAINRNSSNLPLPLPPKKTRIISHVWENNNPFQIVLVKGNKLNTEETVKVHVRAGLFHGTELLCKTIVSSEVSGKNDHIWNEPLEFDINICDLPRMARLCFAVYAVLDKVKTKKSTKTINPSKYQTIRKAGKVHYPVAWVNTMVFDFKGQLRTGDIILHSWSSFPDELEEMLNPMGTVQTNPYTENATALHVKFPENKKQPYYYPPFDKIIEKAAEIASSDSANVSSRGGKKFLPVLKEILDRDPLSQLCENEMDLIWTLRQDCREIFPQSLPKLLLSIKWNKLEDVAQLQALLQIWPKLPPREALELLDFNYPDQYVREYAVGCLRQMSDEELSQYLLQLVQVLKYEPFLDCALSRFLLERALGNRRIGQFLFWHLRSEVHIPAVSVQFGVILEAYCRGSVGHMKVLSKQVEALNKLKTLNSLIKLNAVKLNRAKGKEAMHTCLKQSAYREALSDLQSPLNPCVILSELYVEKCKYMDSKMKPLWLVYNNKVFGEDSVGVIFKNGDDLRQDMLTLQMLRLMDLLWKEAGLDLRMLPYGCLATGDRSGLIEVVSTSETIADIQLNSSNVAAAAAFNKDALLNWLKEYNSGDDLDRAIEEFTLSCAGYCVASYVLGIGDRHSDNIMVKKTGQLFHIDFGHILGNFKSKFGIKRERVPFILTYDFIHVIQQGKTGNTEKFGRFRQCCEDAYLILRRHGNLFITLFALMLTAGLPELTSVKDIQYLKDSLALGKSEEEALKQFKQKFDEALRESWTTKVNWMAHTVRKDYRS
Phosphatidylinositol 4,5-bisphosphate 3-kinase catalytic subunit gamma isoform, sequence (P48736 whole entry, canonical isoform): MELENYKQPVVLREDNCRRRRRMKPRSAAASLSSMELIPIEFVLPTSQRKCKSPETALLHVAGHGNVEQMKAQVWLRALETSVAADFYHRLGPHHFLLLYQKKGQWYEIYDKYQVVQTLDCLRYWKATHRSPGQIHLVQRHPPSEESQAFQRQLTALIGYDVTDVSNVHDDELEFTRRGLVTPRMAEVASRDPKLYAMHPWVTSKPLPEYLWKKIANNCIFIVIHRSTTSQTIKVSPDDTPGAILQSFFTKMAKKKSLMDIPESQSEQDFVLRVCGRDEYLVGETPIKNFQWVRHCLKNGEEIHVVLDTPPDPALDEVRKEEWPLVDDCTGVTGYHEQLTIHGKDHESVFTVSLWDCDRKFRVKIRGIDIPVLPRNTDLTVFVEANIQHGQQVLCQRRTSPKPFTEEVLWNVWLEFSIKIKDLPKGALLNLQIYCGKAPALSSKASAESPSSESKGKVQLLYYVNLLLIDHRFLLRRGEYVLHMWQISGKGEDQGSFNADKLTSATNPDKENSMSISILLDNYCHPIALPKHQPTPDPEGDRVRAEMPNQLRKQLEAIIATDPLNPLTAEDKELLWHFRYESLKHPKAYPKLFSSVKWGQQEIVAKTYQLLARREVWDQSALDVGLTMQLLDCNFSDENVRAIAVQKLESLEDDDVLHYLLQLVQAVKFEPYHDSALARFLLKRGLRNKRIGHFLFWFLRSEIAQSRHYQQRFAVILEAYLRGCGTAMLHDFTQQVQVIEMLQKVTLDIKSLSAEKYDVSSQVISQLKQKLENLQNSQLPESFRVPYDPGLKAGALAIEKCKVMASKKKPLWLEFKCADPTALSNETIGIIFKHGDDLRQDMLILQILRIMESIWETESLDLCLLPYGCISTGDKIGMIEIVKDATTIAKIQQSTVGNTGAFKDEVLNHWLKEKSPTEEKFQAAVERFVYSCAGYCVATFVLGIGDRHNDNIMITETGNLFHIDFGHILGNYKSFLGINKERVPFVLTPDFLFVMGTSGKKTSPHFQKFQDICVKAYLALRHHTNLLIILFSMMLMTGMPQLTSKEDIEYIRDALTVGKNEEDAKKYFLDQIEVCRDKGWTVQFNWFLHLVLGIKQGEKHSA
Phosphatidylinositol 4,5-bisphosphate 3-kinase catalytic subunit alpha isoform, sequence (P42336 whole entry, canonical isoform): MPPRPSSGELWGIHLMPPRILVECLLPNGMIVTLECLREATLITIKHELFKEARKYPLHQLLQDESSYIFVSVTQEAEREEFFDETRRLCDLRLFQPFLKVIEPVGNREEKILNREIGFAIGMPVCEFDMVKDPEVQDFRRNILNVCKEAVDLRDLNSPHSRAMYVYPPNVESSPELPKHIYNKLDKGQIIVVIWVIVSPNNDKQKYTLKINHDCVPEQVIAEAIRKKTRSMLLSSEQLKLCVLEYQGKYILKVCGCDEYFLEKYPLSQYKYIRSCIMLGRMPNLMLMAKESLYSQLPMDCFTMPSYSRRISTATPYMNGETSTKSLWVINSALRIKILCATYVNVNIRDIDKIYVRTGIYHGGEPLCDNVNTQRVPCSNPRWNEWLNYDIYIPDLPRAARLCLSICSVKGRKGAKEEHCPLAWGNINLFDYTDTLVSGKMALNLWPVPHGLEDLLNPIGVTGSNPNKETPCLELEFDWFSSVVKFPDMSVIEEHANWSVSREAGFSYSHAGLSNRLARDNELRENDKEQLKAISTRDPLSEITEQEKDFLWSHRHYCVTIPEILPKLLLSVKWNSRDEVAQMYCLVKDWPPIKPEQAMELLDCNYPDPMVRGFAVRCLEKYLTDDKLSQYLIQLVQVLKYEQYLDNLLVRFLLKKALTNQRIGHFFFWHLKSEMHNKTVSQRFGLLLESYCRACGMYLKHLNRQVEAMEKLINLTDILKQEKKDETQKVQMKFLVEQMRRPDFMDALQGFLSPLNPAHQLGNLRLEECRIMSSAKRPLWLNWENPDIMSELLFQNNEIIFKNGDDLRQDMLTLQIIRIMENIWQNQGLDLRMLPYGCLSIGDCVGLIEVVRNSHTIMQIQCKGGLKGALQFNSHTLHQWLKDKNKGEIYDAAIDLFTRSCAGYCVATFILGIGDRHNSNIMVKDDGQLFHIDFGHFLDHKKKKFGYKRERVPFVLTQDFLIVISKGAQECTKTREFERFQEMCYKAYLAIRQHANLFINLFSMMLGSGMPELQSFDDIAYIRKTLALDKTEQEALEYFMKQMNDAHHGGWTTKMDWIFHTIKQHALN

IC50 [16]: 9.41 µM
IC50 [25]: 3.56 µM
IC50 [27]: 8.67 µM
IC50 [31]: 0.317 µM
SMILES: CCS(=O)(=O)Nc1cc(-c2ccc3ncnc(Nc4ccc(F)c(Cl)c4)c3c2)cnc1OC
IC50 [1]: 5.6 µM
Activity [2]: 54.71%
Activity [3]: 80.7%
Activity [4]: 2.27%
Activity [5]: 2.05%
inhibition [6]: Dose-dependent effect
Activity [7]: Active
IC50 [8]: 8.23 µM
IC50 [9]: 6.1 µM
Activity [10]: 1.79%
IC50 [11]: 1.02 µM
Activity [12]: Active
Activity [13]: 56.69%
Activity [14]: 17.77%
Activity [15]: 30.52%
Activity [17]: 6.52%
Activity [18]: 25.7%
IC50 [19]: 4.1 µM
Activity [20]: 75.36%
Activity [21]: 0.92%
IC50 [22]: 5.59 µM
Activity [23]: Dose-dependent effect
Activity [24]: 69.31%
Activity [26]: 18.37%
Activity [28]: 24.16%
Activity [29]: 6.86%
Activity [30]: 55.6%
inhibition [32]: Dose-dependent effect
